Results: DBAASP
≈ marks a conversion by molar mass, not a printed value. Where “and” joins values, the source holds several entries; their conditions need not be identical. Equal values may be shown once.

How the values were obtained:
Experiment in all cases: ≥ marks a high value that may be exact or a test limit, other limits are often not marked, values filed in µg/mL are converted to µM
[1] = tested on: Candida albicans ATCC 90028
[2] = tested on: Escherichia coli ATCC 25922
[3] = tested on: Pseudomonas aeruginosa ATCC 27853
[4] = tested on: Staphylococcus aureus ATCC 29213
[5] = tested on: Salmonella typhimurium KCTC 1926
Escherichia coli = tested on: Escherichia coli
Pseudomonas aeruginosa = tested on: Pseudomonas aeruginosa
Staphylococcus aureus = tested on: Staphylococcus aureus
[6] = tested on: Staphylococcus epidermidis ATCC 12228
[7] = tested on: Staphylococcus aureus ATCC 25923

Row | SMILES | MIC [2] | MIC [3] [µM] | MIC [4] [µM] | MIC (Escherichia coli) [µM] | other results
1 | CC[C@H](C)[C@H](NC(=O)[C@H](CCCN=C(N)N)NC(=O)[C@H](CCC(N)=O)NC(=O)[C@@H](NC(=O)[C@@H](NC(=O)[C@H](CCCN=C(N)N)NC(=O)[C@@H](N)CCCCN)[C@@H](C)CC)C(C)C)C(=O)N[C@@H](CCCCN)C(=O)N[C@@H](CC(=O)O)C(=O)N[C@@H](Cc1ccccc1)C(=O)N[C@@H](CC(C)C)C(=O)N[C@@H](CCCCN)C(=O)O [KRIVQRIKDFLK] | 5 µM (≈ 7.72 µg/mL) | 5 (≈ 7.72 µg/mL) | 10 (≈ 15.4 µg/mL) |  | MIC [1]: 10 µM (≈ 15.4 µg/mL)
2 | CC[C@H](C)[C@H](NC(=O)[C@@H](NC(=O)[C@@H](NC(=O)[C@H](CCCN=C(N)N)NC(=O)[C@@H](NC(=O)[C@@H](NC(=O)[C@H](CC(C)C)NC(=O)[C@@H]1CCCN1C(=O)[C@H](Cc1c[nH]c2ccccc12)NC(=O)[C@@H](NC(=O)[C@H](CCCN=C(N)N)NC(=O)[C@H](CCCCN)NC(=O)[C@@H](NC(=O)[C@@H](N)CCCN=C(N)N)C(C)C)C(C)C)C(C)C)[C@@H](C)CC)[C@@H](C)O)C(C)C)C(=O)N[C@@H](C)C(=O)NCC(=O)N[C@@H](Cc1ccc(O)cc1)C(=O)N[C@@H](CC(N)=O)C(=O)N[C@@H](CC(C)C)C(=O)O [RVKRVWPLVIRTVIAGYNL] |  |  |  |  | MIC [5]: ≥ 32 µM
3 | CC(C)C[C@H](NC(=O)[C@H](C)NC(=O)[C@H](CC(C)C)NC(=O)[C@@H](N)CCCCN)C(=O)N[C@@H](CCCCN)C(=O)N[C@@H](C)C(=O)N[C@@H](C)C(=O)N[C@@H](C)C(=O)N[C@@H](CCCCN)C(=O)N[C@@H](C)C(=O)N[C@@H](Cc1c[nH]c2ccccc12)C(=O)N[C@@H](CCCCN)C(=O)N[C@@H](C)C(=O)N[C@@H](C)C(=O)N[C@@H](C)C(=O)N[C@@H](CCCCN)C(=O)N[C@@H](C)C(=O)N[C@@H](C)C(N)=O [KLALKAAAKAWKAAAKAA] |  |  |  | 91 (≈ 162 µg/mL) | MIC (Pseudomonas aeruginosa): > 91 µM; MIC (Staphylococcus aureus): > 91 µM
4 | CC[C@H](C)[C@H](NC(=O)[C@H](CCCCN)NC(=O)[C@H](CCCCN)NC(=O)[C@@H](N)CCC(N)=O)C(=O)N[C@@H](CCCN=C(N)N)C(=O)N[C@H](C(=O)N[C@@H](C)C(=O)N[C@@H](CC(C)C)C(=O)N[C@@H](CO)C(=O)N[C@@H](C)C(=O)O)C(C)C [QKKIRVALSA] | 14.4 µM (≈ 16 µg/mL) | 14.4 (≈ 16 µg/mL) | > 57.5 |  | 
5 | CC[C@H](C)[C@H](NC(=O)CNC(=O)[C@H](CC(C)C)NC(=O)[C@@H](NC(=O)[C@@H](N)Cc1ccc(O)cc1)[C@@H](C)O)C(=O)N[C@@H](CCCCN)C(=O)N[C@H](C(=O)N[C@@H](CC(C)C)C(=O)N[C@@H](Cc1c[nH]c2ccccc12)C(=O)N[C@@H](CO)C(=O)N[C@@H](C)C(=O)N[C@@H](Cc1ccc(O)cc1)C(=O)N[C@@H](CCCCN)C(=O)N[C@@H](Cc1cnc[nH]1)C(=O)N[C@@H](CCCN=C(N)N)C(=O)N[C@@H](CCCCN)C(=O)N[C@H](C(=O)N[C@H](C(=O)N[C@@H](CCC(=O)O)C(=O)N[C@@H](CCCCN)C(=O)N[C@@H](CO)C(=O)N[C@@H](Cc1ccccc1)C(=O)N[C@@H](CC(N)=O)C(=O)N[C@@H](CCCCN)C(=O)NCC(=O)N[C@@H](Cc1ccccc1)C(=O)N[C@@H](Cc1ccc(O)cc1)C(=O)N[C@@H](Cc1cnc[nH]1)C(=O)O)[C@@H](C)CC)[C@@H](C)O)[C@@H](C)CC [YTLGIKILWSAYKHRKTIEKSFNKGFYH] |  |  |  |  | MIC [6]: 50 µM (≈ 172 µg/mL)
6 | CC(=O)N[C@@H](CCCCN)C(=O)N[C@@H](CC(C)C)C(=O)N[C@@H](CC(C)C)C(=O)N[C@@H](CCCCN)C(=O)N[C@@H](CC(C)C)C(=O)N1CCC[C@H]1C(=O)N[C@@H](CCCCN)C(=O)N[C@@H](CCCCN)C(=O)N[C@@H](CC(C)C)C(=O)N[C@@H](CC(C)C)C(=O)N[C@@H](CCCCN)C(=O)N[C@@H](CC(C)C)C(=O)N[C@@H](CC(C)C)C(=O)N[C@@H](CCCCN)C(N)=O [KLLKLPKKLLKLLK] | > 80 µM |  | > 80 |  | 
7 | CC[C@H](C)[C@H](N)C(=O)N[C@H](C(=O)N[C@@H](CO)C(=O)N[C@H](C(=O)N[C@H](C(=O)NCC(=O)N[C@@H](CCCCN)C(=O)N[C@@H](CC(C)C)C(=O)N[C@H](C(=O)N[C@@H](CCCCN)C(=O)N[C@@H](Cc1c[nH]c2ccccc12)C(=O)N[C@H](C(=O)N[C@H](C(=O)N[C@@H](CCCCN)C(=O)N[C@H](C(=O)N[C@H](C(=O)N[C@@H](CC(N)=O)C(=O)N[C@@H](CCCCN)C(=O)N[C@@H](Cc1ccccc1)C(=O)N[C@H](C(=O)N[C@@H](CCCCN)C(=O)N[C@@H](CCCCN)C(=O)O)[C@@H](C)O)C(C)C)[C@@H](C)O)[C@@H](C)CC)[C@@H](C)CC)C(C)C)[C@@H](C)CC)[C@@H](C)O)[C@@H](C)CC [IISTIGKLVKWIIKTVNKFTKK] |  |  |  | 2.7 (≈ 6.91 µg/mL) | MIC (Staphylococcus aureus): 4.7 µM (≈ 12 µg/mL)
8 | CC(C)C[C@H](NC(=O)[C@H](CCCCN)NC(=O)[C@H](CC(C)C)NC(=O)[C@H](CC(C)C)NC(=O)[C@H](CCCCN)NC(=O)[C@H](CCCCN)NC(=O)[C@H](Cc1cnc[nH]1)NC(=O)[C@H](CC(C)C)NC(=O)[C@H](CCCCN)NC(=O)[C@H](CC(C)C)NC(=O)[C@H](CC(C)C)NC(=O)[C@H](CCCCN)NC(=O)[C@H](CCCCN)NC(=O)[C@@H](N)CC(C)C)C(=O)N[C@@H](C)C(=O)NCC(=O)O [LKKLLKLHKKLLKLAG] | 2.5 µM (≈ 4.61 µg/mL) |  | > 40 |  | 

More lines, main results first:

Row | MIC [2] | MIC [3] [µM] | MIC [4] [µM] | MIC (Escherichia coli) [µM] | SMILES | other results
9 | 128 µM (≈ 114 µg/mL) | 128 (≈ 114 µg/mL) | 128 (≈ 114 µg/mL) |  | CC[C@H](C)[C@H](N)C(=O)N[C@@H](Cc1c[nH]c2ccccc12)C(=O)N[C@@H](CCCN=C(N)N)C(=O)N[C@H](C(=O)N[C@@H](Cc1ccccc1)C(=O)N[C@@H](CCCN=C(N)N)C(N)=O)[C@@H](C)CC [IWRIFR] | MIC [6]: 64 µM (≈ 56.9 µg/mL)
10 | 2.5 µM (≈ 3.64 µg/mL) | 5 (≈ 7.29 µg/mL) | 10 (≈ 14.6 µg/mL) |  | CC[C@H](C)[C@H](NC(=O)[C@H](CCCN=C(N)N)NC(=O)[C@H](CCC(N)=O)NC(=O)[C@H](C)NC(=O)[C@H](C)NC(=O)[C@H](CCCN=C(N)N)NC(=O)[C@@H](N)CCCCN)C(=O)N[C@@H](CCCCN)C(=O)N[C@@H](C)C(=O)N[C@@H](Cc1ccccc1)C(=O)N[C@@H](CC(C)C)C(=O)N[C@@H](CCCN=C(N)N)C(=O)O [KRAAQRIKAFLR] | MIC [1]: ≥ 40 µM
11 |  |  |  | 2.3 (≈ 5.93 µg/mL) | CC[C@H](C)[C@H](NC(=O)CN)C(=O)NCC(=O)N[C@@H](CCCCN)C(=O)N[C@@H](Cc1ccccc1)C(=O)N[C@H](C(=O)N[C@@H](Cc1cnc[nH]1)C(=O)N[C@@H](CO)C(=O)N[C@H](C(=O)N[C@@H](CCCCN)C(=O)N[C@@H](CCCCN)C(=O)N[C@@H](Cc1c[nH]c2ccccc12)C(=O)NCC(=O)N[C@@H](CCCCN)C(=O)N[C@H](C(=O)N[C@@H](Cc1ccccc1)C(=O)N[C@H](C(=O)NCC(=O)N[C@@H](CCC(=O)O)C(=O)N[C@H](C(=O)N[C@@H](CCSC)C(=O)N[C@@H](CC(N)=O)C(=O)N[C@@H](CO)C(N)=O)[C@@H](C)CC)[C@@H](C)CC)[C@@H](C)O)C(C)C)[C@@H](C)CC [GIGKFIHSVKKWGKTFIGEIMNS] | MIC (Pseudomonas aeruginosa): 18 µM (≈ 46.4 µg/mL); MIC (Staphylococcus aureus): 18 µM (≈ 46.4 µg/mL)
12 | 4 µM and 8 µM | 4 (≈ 6.89 µg/mL) | 1 (≈ 1.72 µg/mL) |  | CC[C@H](C)[C@H](N)C(=O)N[C@@H](Cc1c[nH]c2ccccc12)C(=O)N[C@@H](CCCN=C(N)N)C(=O)N[C@H](C(=O)N[C@@H](Cc1ccccc1)C(=O)N[C@@H](CCCN=C(N)N)C(=O)N[C@@H](CCCN=C(N)N)C(=O)N[C@H](C(=O)N[C@@H](Cc1ccccc1)C(=O)N[C@@H](CCCN=C(N)N)C(=O)N[C@H](C(=O)N[C@@H](Cc1ccccc1)C(N)=O)[C@@H](C)CC)[C@@H](C)CC)[C@@H](C)CC [IWRIFRRIFRIF] | MIC [6]: 2 µM (≈ 3.44 µg/mL)
13 |  |  |  | 10.3 (≈ 20 µg/mL) | CC(C)C[C@H](NC(=O)[C@H](Cc1ccc(O)cc1)NC(=O)[C@@H]1CCCN1C(=O)[C@H](Cc1c[nH]c2ccccc12)NC(=O)[C@H](Cc1c[nH]c2ccccc12)NC(=O)[C@H](Cc1c[nH]c2ccccc12)NC(=O)[C@@H]1CCCN1C(=O)[C@H](Cc1ccc(O)cc1)NC(=O)[C@H](CCCN=C(N)N)NC(=O)[C@H](CCCN=C(N)N)NC(=O)[C@@H](N)C(C)C)C(=O)N[C@@H](CCCN=C(N)N)C(=O)N[C@@H](CCCN=C(N)N)C(N)=O [VRRYPWWWPYLRR] | MIC (Staphylococcus aureus): 2.58 µM (≈ 5 µg/mL)
14 | 1.02 µM (≈ 2.5 µg/mL) | 2.03 (≈ 5 µg/mL) |  | 0.359 (≈ 0.884 µg/mL) | CC[C@H](C)[C@H](NC(=O)CN)C(=O)NCC(=O)N[C@@H](C)C(=O)N[C@H](C(=O)N[C@@H](CC(C)C)C(=O)N[C@@H](CCCCN)C(=O)N[C@H](C(=O)N[C@@H](CC(C)C)C(=O)N[C@H](C(=O)N[C@H](C(=O)NCC(=O)N[C@@H](CC(C)C)C(=O)N1CCC[C@H]1C(=O)N[C@@H](C)C(=O)N[C@@H](CC(C)C)C(=O)N[C@H](C(=O)N[C@@H](CCCCN)C(=O)N[C@@H](CCCN=C(N)N)C(=O)N[C@@H](CCCCN)C(=O)N[C@@H](CCCN=C(N)N)C(=O)N[C@@H](CCC(N)=O)C(=O)N[C@@H](CCC(N)=O)C(=O)O)[C@@H](C)CC)[C@@H](C)O)[C@@H](C)O)C(C)C)C(C)C [GIGAVLKVLTTGLPALIKRKRQQ] | MIC (Pseudomonas aeruginosa): 1.44 µM (≈ 3.54 µg/mL); MIC [7]: 0.0508 µM (≈ 0.125 µg/mL)
15 | 5 µM (≈ 8.54 µg/mL) |  | > 40 |  | CC[C@H](C)[C@H](NC(=O)[C@H](CCCN=C(N)N)NC(=O)[C@H](CCC(N)=O)NC(=O)[C@H](CO)NC(=O)[C@@H](NC(=O)[C@H](CCCN=C(N)N)NC(=O)[C@H](CCCCN)NC(=O)[C@@H](N)Cc1ccccc1)[C@@H](C)CC)C(=O)N[C@@H](CCCCN)C(=O)N[C@@H](CC(=O)O)C(=O)N[C@@H](Cc1ccccc1)C(=O)N[C@@H](CC(C)C)C(=O)N[C@@H](CCCN=C(N)N)C(=O)O [FKRISQRIKDFLR] | 
